“Also recorded” adds a separate entry of the source.
Experiments:
[1] = test system: Porcine Reproductive and Respiratory Syndrome virus (PRRS); test: Cytopathic effect (CPE) in Vero cells infected with PRRS virus, MCFA mixtures added; format: cell-based; design: key: 4 = total destruction of the cells; 3 = medium destruction; 2 = low destruction; 1 = no destruction; conditions: 0.1% concentration in tissue culture, 5 days post infection
ASF = test system: ASF; design: species or system African Swine Fever Virus
PED virus = format: cell-based, Porcine Epidemic Diarrhea virus
[2] = test system: African Swine Fever Virus (ASFV)

Row | SMILES | CPE (first test) [1] | CPE (second test) [1] | Viral load of ASF compared with ester form or untreated feed (ASF) | Protection against viral infection and cytolytic effect of the cells (PED virus) | Cq value for ASFV compared to positive control [2]
1 | CCCCCC(=O)O [100% C6, caproic acid] | 3/3 | 3/3 |  |  | 
2 | CCCCCCCC(=O)O [100% C8, caprylic acid] | 2/2 | 2/2 |  |  | 
3 | CCCCCCCCC(=O)O [100% C9, pelargonic acid] | 2/2 | 2/2 | significantly reduced the viral load | gave the best results | 
4 | CCCCCCCCC(=O)O [Composition F1, pelargonic acid] |  |  |  |  | significantly increase the Cq value; also recorded: induced a statistical increase in Cq value
5 | CCCCCCCCCC(=O)O [100% C10, capric acid] | 2 | 4 |  |  | 

Source: patent publication US20240075003A1, “Pelargonic Acid for Use Against Viral Infections” (priority 2021, published 2024)
